The values that follow come from US11648248B1 (King Abdulaziz University, priority 2022, dated 2023).

By MIC is commonly meant the lowest concentration found to suppress growth.

Values after ≈ are worked out from the molar mass of the structure shown.

The test system of experiment [1] is multi-drug resistant staphylococcal strains. In words: MIC against panel of staphylococcal strains. It is filed as cell-based. The following applies: Staphylococcus; range over the staphylococcal panel; read-out: MIC values, tested staphylococcal strains. The text has this:
Based upon the initial results obtained, the active compounds were further screened against additional clinical isolates of methicillin-sensitive S. aureus (MSSA), methicillin-resistant S. aureus (MRSA), vancomycin-resistant S. aureus (VRSA), Staphylococcus epidermidis, vancomycin-resistant Enterococcus faecium (VRE), vancomycin-resistant Enterococcus faecalis (VRE) and Streptococcus pneumoniae, as presented in Table 2. Additionally, we examined whether the compounds were bacteriostatic (inhibit bacteria from growing) or bactericidal (kill bacteria) by determining the minimum bactericidal concentration (MBC). The MBC was determined by plating 5 μL from each well where no growth was present (in the MIC plates) onto tryptic soya agar plates and incubating plates at 37° C. for 24 hours. The MBC was categorized as the lowest concentration that generated a 99.9% reduction in bacterial colony-forming units (Table 3).
The minimum inhibitory concentrations (MICs) of the tested compounds and control drugs; linezolid, vancomycin, gentamicin (antibiotics) and fluconazole and 5-fluorocytosine (5-FC) (antifungal drugs) were determined using the broth microdilution method, according to guidelines outlined by the Clinical and Laboratory Standards Institute (CLSI)^1, 2, 3 against clinically-relevant bacterial (methicillin-resistant Staphylococcus aureus (MRSA), Escherichia coli and Clostridium difficile strains) and fungal (Candida albicans) strain. S. aureus and E. coli were grown aerobically overnight on tryptone soy agar plates at 37° C. C. difficile was grown anaerobically on brain heart infusion supplemented agar at 37° C. for 48 hours. C. albicans was grown aerobically overnight on yeast peptone dextrose (YPD) agar plate at 35° C. Afterwards, a bacterial solution equivalent to 0.5 McFarland standard was prepared and diluted in cation-adjusted Mueller-Hinton broth (CAMHB) (for S. aureus and E. coli) to achieve a bacterial concentration of about 5×10^5 CFU/mL. C. difficile was diluted in brain heart infusion supplemented broth, supplemented with yeast extract, hemin and vitamin K to achieve a bacterial concentration of about 5×10^5 CFU/mL. C. albicans was diluted in Roswell Park Memorial Institute (RPMI 1640) medium with glutamine and without bicarbonate (GIBCO by Life Technologies, Green Island, N.Y., USA) which was buffered to pH 7.0 with 0.165 M of [3-(N-morpholino) propanesulfonic acid] (MOPS) (dot scientific inc., Burton, Mich., USA) to achieve a fungal concentration of about 1.5×10^3 CFU/mL. Compounds and control drugs were added in the first row of the 96-well plates and serially diluted with the corresponding media containing bacteria/fungi. Plates were then, incubated aerobically at 37° C. for 18-20 hours (for S. aureus and E. coli). […]

Another experiment concerns Gram-positive strains. The experiment in a line: Relative MIC compared to reference drugs (FIG. 3). It is filed as cell-based. The text has this:
FIG. 3. Relative MIC of MY31 compared to reference drugs.
For instance, it stopped the growth of VRSA strains with more potency than sorafenib (the prototype) and, as expected, much higher than vancomycin. […] Material and Methods

On to `O=C(Nc1ccc(Oc2ccc(=O)[nH]n2)cc1)Nc1ccc(Cl)c(C(F)(F)F)c1` [MY31, 1-(4-chloro-3-(trifluoromethyl)phenyl)-3-(4-((6-oxo-1,6-dihydropyridazin-3-yl)oxy)phenyl)urea], for which, in experiment [1], the MIC was 0.5 to 1 µg/mL (≈ 1.18 to 2.35 µM). Further, the “bacteriostatic activity relative to tested compounds and positive control antibiotics” value in the experiment with Gram-positive strains was “highest bacteriostatic activity among the tested compounds”.

As for `O=C(Nc1ccc(-c2ccc(=O)[nH]n2)cc1)Nc1ccc(Cl)c(Cl)c1` [MY21, 1-(3,4-dichlorophenyl)-3-(4-(6-oxo-1,6-dihydropyridazin-3-yl)phenyl)urea], in experiment [1], the MIC was in the range of 0.5 to 1 µg/mL (≈ 1.33 to 2.67 µM). Same read-out and setting: next, `O=C(Nc1cccc(Nc2ccc(Cl)nn2)c1)Nc1ccc(Cl)c(Cl)c1` [MY14, 1-(3-((6-chloropyridazin-3-yl)amino)phenyl)-3-(3,4-dichlorophenyl)urea]: 2 to 8 µg/mL (≈ 4.89 to 19.6 µM); `O=C(Nc1ccc(Oc2ccc(=O)[nH]n2)cc1)Nc1ccc(Cl)c(Cl)c1` [MY24, 1-(3,4-dichlorophenyl)-3-(4-((6-oxo-1,6-dihydropyridazin-3-yl)oxy)phenyl)urea]: 0.5 to 1 µg/mL (≈ 1.28 to 2.56 µM).
